Legend:
AZD2811 = compound: CCN(CCO)CCCOc1ccc2c(Nc3cc(CC(=O)Nc4cccc(F)c4)[nH]n3)ncnc2c1 [AZD2811]; settings: max 1 µM
Procedure, shortened: (§1)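 In 1536-well plates, cancer cell lines in 7.5 μl DMEM/F12 or RPMI with 10% FBS spent 24 hours at 37°C and 5% CO2 and were then dosed for 72 hours with final DMSO typically 0.2%. Viability was read by CellTiter-Glo 2.0 luminescence and scaled between blank-well and DMSO-well means. The single-agent IC50 was fitted from dose responses using a logistic curve in a non-linear mixed effects model, and that logistic curve had two parameters.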

AZD8186 = compound: C[C@@H](Nc1cc(F)cc(F)c1)c1cc(C(=O)N(C)C)cc2c(=O)cc(N3CCOCC3)oc12 [AZD8186]; settings: max 3 µM
Procedure, shortened: as §1

Olaparib = compound: O=C(c1cc(Cc2n[nH]c(=O)c3ccccc23)ccc1F)N1CCN(C(=O)C2CC2)CC1 [Olaparib]; settings: max 10 µM
Procedure, shortened: as §1

Prexasertib = compound: COc1cccc(OCCCN)c1-c1cc(Nc2cnc(C#N)cn2)n[nH]1 [Prexasertib]; settings: max 1 µM
Procedure, shortened: as §1

AZD0156 = compound: CN(C)CCCOc1ccc(-c2ccc3ncc4c(c3c2)n(C2CCOCC2)c(=O)n4C)cn1 [AZD0156]; settings: max 3 µM
Procedure, shortened: as §1

Taselisib = compound: Cc1nc(-c2cn3c(n2)-c2ccc(-c4cnn(C(C)(C)C(N)=O)c4)cc2OCC3)n(C(C)C)n1 [Taselisib]; settings: max 10 µM
Procedure, shortened: as §1

Gefitinib = compound: COc1cc2ncnc(Nc3ccc(F)c(Cl)c3)c2cc1OCCCN1CCOCC1 [Gefitinib]; settings: max 10 µM
Procedure, shortened: as §1

Trametinib = compound: CC(=O)Nc1cccc(-n2c(=O)n(C3CC3)c(=O)c3c(Nc4ccc(I)cc4F)n(C)c(=O)c(C)c32)c1 [Trametinib]; settings: max 1 µM
Procedure, shortened: as §1

AZD4320 = compound: CN(CC[C@H](CSC1=CC=CC=C1)NC2=C(C=C(C=C2)S(=O)(=O)NC(=O)C3=CC=C(C=C3)N4CCC(CC4)[C@H](C5=CC=CC=C5C6=CC=C(C=C6)Cl)O)S(=O)(=O)C(F)(F)F)CCO [AZD4320]; settings: max 1 µM
Procedure, shortened: as §1

Doxorubicin = compound: COc1cccc2c1C(=O)c1c(O)c3c(c(O)c1C2=O)C[C@@](O)(C(=O)CO)C[C@@H]3O[C@H]1C[C@H](N)[C@H](O)[C@H](C)O1 [Doxorubicin]; settings: max 1 µM
Procedure, shortened: as §1

AZD6738 = compound: C[C@@H]1COCCN1C2=NC(=NC(=C2)C3(CC3)[S@](=N)(=O)C)C4=C5C=CNC5=NC=C4 [AZD6738]; settings: max 10 µM
Procedure, shortened: as §1

Capivasertib = compound: C1CN(CCC1(C(=O)N[C@@H](CCO)C2=CC=C(C=C2)Cl)N)C3=NC=NC4=C3C=CN4 [Capivasertib]; settings: max 10 µM
Procedure, shortened: as §1

Alisertib = compound: COc1cc(Nc2ncc3c(n2)-c2ccc(Cl)cc2C(c2c(F)cccc2OC)=NC3)ccc1C(=O)O [Alisertib]; settings: max 10 µM
Procedure, shortened: as §1

AZD7648 = compound: Cc1cc2ncnn2cc1Nc1ncc2c(n1)n(C1CCOCC1)c(=O)n2C [AZD7648]; settings: max 10 µM
Procedure, shortened: as §1

SG3199 = compound: CC1=CN2[C@@H](C1)C=NC3=CC(=C(C=C3C2=O)OC)OCCCCCOC4=C(C=C5C(=C4)N=C[C@@H]6CC(=CN6C5=O)C)OC [SG3199]; settings: max 0.001 µM
Procedure, shortened: as §1

MK-2206 = compound: NC1(c2ccc(-c3nc4ccn5c(=O)[nH]nc5c4cc3-c3ccccc3)cc2)CCC1 [MK-2206]; settings: max 10 µM
Procedure, shortened: as §1

Dasatinib = compound: CC1=C(C(=CC=C1)Cl)NC(=O)C2=CN=C(S2)NC3=CC(=NC(=N3)C)N4CCN(CC4)CCO [Dasatinib]; settings: max 2 µM
Procedure, shortened: as §1

Crizotinib = compound: C[C@@H](Oc1cc(-c2cnn(C3CCNCC3)c2)cnc1N)c1c(Cl)ccc(F)c1Cl [Crizotinib]; settings: max 10 µM
Procedure, shortened: as §1

AZD1775 = compound: C=CCn1c(=O)c2cnc(Nc3ccc(N4CCN(C)CC4)cc3)nc2n1-c1cccc(C(C)(C)O)n1 [AZD1775]; settings: max 3 µM
Procedure, shortened: as §1

AZD5991 = compound: Cc1c2c(nn1C)CSCc1cc(n(C)n1)CSc1cc(c3ccccc3c1)OCCCc1c(C(=O)O)n(C)c3c-2c(Cl)ccc13 [AZD5991]; settings: max 1 µM
Procedure, shortened: as §1

SN-38 = compound: CCc1c2c(nc3ccc(O)cc13)-c1cc3c(c(=O)n1C2)COC(=O)[C@]3(O)CC [SN-38]; settings: max 0.3 µM
Procedure, shortened: as §1

Lapatinib = compound: CS(=O)(=O)CCNCc1ccc(-c2ccc3ncnc(Nc4ccc(OCc5cccc(F)c5)c(Cl)c4)c3c2)o1 [Lapatinib]; settings: max 10 µM
Procedure, shortened: as §1

AZD1390 = compound: CC(C)n1c(=O)n(C)c2cnc3cc(F)c(-c4ccc(OCCCN5CCCCC5)nc4)cc3c21 [AZD1390]; settings: max 0.3 µM
Procedure, shortened: as §1

Savolitinib = compound: C[C@@H](c1ccc2nccn2c1)n1nnc2ncc(-c3cnn(C)c3)nc21 [Savolitinib]; settings: max 1 µM
Procedure, shortened: as §1

Palbociclib = compound: CC(=O)c1c(C)c2cnc(Nc3ccc(N4CCNCC4)cn3)nc2n(C2CCCC2)c1=O [Palbociclib]; settings: max 10 µM
Procedure, shortened: as §1

AZD5153 = compound: COc1nnc2ccc(N3CCC(c4ccc(OCCN5CCN(C)C(=O)[C@H]5C)cc4)CC3)nn12 [AZD5153]; settings: max 1 µM
Procedure, shortened: as §1

Venetoclax = compound: CC1(C)CCC(CN2CCN(c3ccc(C(=O)NS(=O)(=O)c4ccc(NCC5CCOCC5)c([N+](=O)[O-])c4)c(Oc4cnc5[nH]ccc5c4)c3)CC2)=C(c2ccc(Cl)cc2)C1 [Venetoclax]; settings: max 1 µM
Procedure, shortened: as §1

Selumetinib = compound: Cn1cnc2c(F)c(Nc3ccc(Br)cc3Cl)c(C(=O)NOCCO)cc21 [Selumetinib]; settings: max 10 µM
Procedure, shortened: as §1

Cell Line	IC50, cell viability 72 h (AZD2811)	IC50, cell viability 72 h (AZD8186)	IC50, cell viability 72 h (Olaparib)	IC50, cell viability 72 h (Prexasertib)	IC50, cell viability 72 h (AZD0156)	IC50, cell viability 72 h (Taselisib)	IC50, cell viability 72 h (Gefitinib)	IC50, cell viability 72 h (Trametinib)	IC50, cell viability 72 h (AZD4320)	IC50, cell viability 72 h (Doxorubicin)	IC50, cell viability 72 h (AZD6738)	IC50, cell viability 72 h (Capivasertib)	IC50, cell viability 72 h (Alisertib)	IC50, cell viability 72 h (AZD7648)	IC50, cell viability 72 h (SG3199)	IC50, cell viability 72 h (MK-2206)	IC50, cell viability 72 h (Dasatinib)	IC50, cell viability 72 h (Crizotinib)	IC50, cell viability 72 h (AZD1775)	IC50, cell viability 72 h (AZD5991)	IC50, cell viability 72 h (SN-38)	IC50, cell viability 72 h (Lapatinib)	IC50, cell viability 72 h (AZD1390)	IC50, cell viability 72 h (Savolitinib)	IC50, cell viability 72 h (Palbociclib)	IC50, cell viability 72 h (AZD5153)	IC50, cell viability 72 h (Venetoclax)	IC50, cell viability 72 h (Selumetinib)
OVCA420 (Ovarian Carcinoma)	> 1 µM	> 3 µM	> 10 µM	0.178 µM	> 3 µM	0.989 µM	4.45 µM	0.156 µM	> 1 µM	> 1 µM	> 10 µM	> 10 µM	> 10 µM	> 10 µM	> 0.001 µM	> 10 µM	0.265 µM	> 10 µM	> 3 µM	> 1 µM	> 0.3 µM	1.33 µM	> 0.3 µM	> 1 µM	> 10 µM	0.126 µM	> 1 µM	7.91 µM
B-CPAP (Thyroid Gland Carcinoma)	> 1 µM	> 3 µM	> 10 µM	0.149 µM	> 3 µM	> 10 µM	> 10 µM	> 1 µM	> 1 µM	0.608 µM	> 10 µM	> 10 µM	6.62 µM	> 10 µM	> 0.001 µM	> 10 µM	0.324 µM	> 10 µM	1.42 µM	> 1 µM	0.025 µM	> 10 µM	> 0.3 µM	> 1 µM	> 10 µM	0.379 µM	> 1 µM	> 10 µM
MFE-296 (Endometrial Carcinoma)	> 1 µM	> 3 µM	> 10 µM	0.385 µM	> 3 µM	> 10 µM	> 10 µM	> 1 µM	> 1 µM	> 1 µM	> 10 µM	> 10 µM	> 10 µM	> 10 µM	> 0.001 µM	> 10 µM	> 2 µM	> 10 µM	> 3 µM	> 1 µM	0.158 µM	> 10 µM	> 0.3 µM	> 1 µM	> 10 µM	> 1 µM	> 1 µM	> 10 µM
SK-ES-1 (Ewing's Sarcoma)	0.0179 µM	> 3 µM	2.61 µM	0.028 µM	> 3 µM	0.676 µM	> 10 µM	> 1 µM	0.15 µM	0.0533 µM	2.89 µM	> 10 µM	0.0941 µM	> 10 µM	> 0.001 µM		> 2 µM	1.41 µM	0.618 µM	0.236 µM	0.0016 µM	> 10 µM	> 0.3 µM	> 1 µM	2.39 µM	0.296 µM	> 1 µM	> 10 µM
COLO-205 (Colorectal Carcinoma)	0.116 µM	> 3 µM	> 10 µM	0.782 µM	> 3 µM	4.25 µM	> 10 µM	0.00616 µM	> 1 µM	0.518 µM	> 10 µM	> 10 µM	0.743 µM	> 10 µM	> 0.001 µM		> 2 µM	4.11 µM	> 3 µM	> 1 µM	> 0.3 µM	> 10 µM	> 0.3 µM	> 1 µM	7.97 µM	0.499 µM	> 1 µM	0.302 µM
AGS (Gastric Carcinoma)	> 1 µM	> 3 µM	> 10 µM	0.839 µM	> 3 µM	0.577 µM	> 10 µM	0.0119 µM	> 1 µM	0.151 µM	4.93 µM	> 10 µM	> 10 µM	> 10 µM	> 0.001 µM		> 2 µM	> 10 µM	0.455 µM	> 1 µM	0.0226 µM	> 10 µM	> 0.3 µM	> 1 µM	> 10 µM	0.251 µM	> 1 µM	0.767 µM
ES4 (Ewing's Sarcoma)	> 1 µM	> 3 µM	> 10 µM	0.0243 µM	> 3 µM	3.24 µM	> 10 µM	> 1 µM	> 1 µM	0.431 µM	2.03 µM	> 10 µM	> 10 µM	> 10 µM	> 0.001 µM		> 2 µM	> 10 µM	> 3 µM	> 1 µM	0.00883 µM	> 10 µM	> 0.3 µM	> 1 µM	> 10 µM	0.246 µM	> 1 µM	> 10 µM

From the supplement of paper PMC11061612
